In US9434684B2, “Oxime-substituted amide compound and pest control agent” (Nissan Chemical Industries, Ltd., priority 2012, dated 2016) one finds pest or weed control and melting point data, which are given here for 21 compounds.

Data set [1] deals with Botrytis cinerea. The data set can be described thus: Preventive effect against cucumber gray mold (mycelium inoculation). The settings on record: 48 h, test solution A 500 ppm, 2 days. It is filed as in vivo. As for the experimental part:
Compounds of the present invention were dissolved in a solvent for emulsion (a mixture of Sorpol (registered trademark) 3005XL (manufactured by Toho Chemical Industry Co., Ltd.): N-methylpyrrolidone:Solvesso (registered trademark) 200 (manufactured by ExxonMobil Chemical) in a ratio of 1:5:2) to prepare 20% emulsifiable concentrates. Then, distilled water was added to dilute the emulsifiable concentrates to the predetermined concentration (500 ppm), and the obtained solutions were used in the following Test Examples 1 to 7. Cucumber (cultivar: Sagami Hanjiro) was planted in 90 cm^3 plastic pots, and in the seed leaf stage, 5 ml per pot of test solutions A of the compounds of the present invention were applied. On the next day, the pots were put in a plastic container, and agar blocks (diameter: 5 mm) containing Botrytis cinerea preliminarily cultivated in a PDA medium were inoculated to the seed leaves of the cucumber treated with the solutions. After the inoculation, the plastic container was covered with a plastic sheet and humidified, and placed at 20° C. for 2 days, whereupon the proportion of the formed lesion in the inoculated leaves was measured to calculate the control value in accordance with the same formula as in Test Example 1. Here, the test was carried out in duplicate.

In data set [2] the test system is Puccinia recondita. The data set can be described thus: Preventive effect against wheat brown leaf rust. In kind it is in vivo. The settings on record: 216 h, test solution A 500 ppm, 1 + 8 days. As for the experimental part:
(§1) Compounds of the present invention were dissolved in a solvent for emulsion (a mixture of Sorpol (registered trademark) 3005XL (manufactured by Toho Chemical Industry Co., Ltd.): N-methylpyrrolidone:Solvesso (registered trademark) 200 (manufactured by ExxonMobil Chemical) in a ratio of 1:5:2) to prepare 20% emulsifiable concentrates. Then, distilled water was added to dilute the emulsifiable concentrates to the predetermined concentration (500 ppm), and the obtained solutions were used in the following Test Examples 1 to 7. To wheat (cultivar: Norin-61-go) in 1.3-leaf stage planted in 90 cm^3 plastic pots, 5 ml per pot of test solutions A of the compounds of the present invention were applied. On the next day, a suspension of spore of Puccinia recondita was spray-inoculated to the wheat, and the pots were placed in an inoculation chamber at 20° C. under a humidity of 100% for 1 day. Then, the pots were placed in an air-conditioned greenhouse (20° C.) for 8 days. The proportion of the formed lesion in the inoculated leaves was measured to calculate the control value in accordance with the same formula as in Test Example 1. Here, the test was carried out in duplicate.

In data set [3] the test system is Phaeosphaeria nodorum (synonym: Septoria nodorum). The data set can be described thus: Preventive effect against wheat glume blotch. In kind it is in vivo. The settings on record: Parastagonospora nodorum, 192 h, test solution A 500 ppm, 2 + 6 days. As for the experimental part:
as §1, with “Haruyutaka)” for “Norin-61-go)”, “conidium” for “spore”, “Phaeosphaeria nodorum synonym: Septoria nodorum)” for “Puccinia recondita”, “2 days.” for “1 day.”, “6” for “8”

For data set [4], the system named is Meloidogyne incognita. The data set can be described thus: Preventive effect on Meloidogyne incognita (garden balsam seedlings, root knot). In kind it is in vivo. The note with it: 504 h, test solution B 100 ppm, 1 ml per seedling, 3 weeks, read-out: efficacy (damage degree, root knot, relative to non-treated plot). As for the experimental part: Compounds of the present invention were dissolved in dimethylsulfoxide to prepare 1% solutions. Then, distilled water was added to dilute the solutions to the predetermined concentration (100 ppm), and the obtained solutions were used in the following Test Examples 8 to 12. 1 ml per seedling of test solutions B of the compounds of the present invention were treated to the bases of garden balsam seedlings (about 2 weeks after budding) planted in a cell tray of which each cell was filled with 10 g of soil. 1 Hour after the application, 1 ml per cell of water containing Meloidogyne incognita 2 L larvae (100 2 L larvae/1 ml) was applied to the bases. The tray was placed in a greenhouse for 3 weeks, and the root knot level formed on the root was determined in accordance with the following damage index and the damage degree to calculate the efficacy (%) relative to the non-treated plot in accordance with the following formula. <Damage Index> 0: No knot observed. 1: Knot observed on a part of the root system. 2: Knot observed on the entire root system. 3: Large knot observed. 4: Large knot observed on the entire root system. [Damage degree]=[Σ(damage index×number of seedlings at each index)/(4×number of seedlings investigated)]×100 Efficacy(%)=[1−(damage degree in treated plot/damage degree in non-treated plot)]×100

Molecules are shown by their SMILES.

For `CON=C(CNC(=O)c1ccccc1C(F)(F)F)c1ncc(OC)cc1Cl` [2-083, N-[2-(3-chloro-5-methoxypyridin-2-yl)-2-(methoxyimino)ethyl]-2-(trifluoromethyl)benzamide], the pest or weed control at 500 µg/mL in data set [1] is at least 70%. Regarding `CCC(C)O/N=C(/CNC(=O)c1ccccc1C(F)(F)F)c1ncc(Cl)cc1Cl` (stereo not shown) [2-136, (Z)—N-[2-(3,5-dichloropyridin-2-yl)-2-(sec-butoxyimino)ethyl]-2-(trifluoromethyl)benzamide], the melting point lay in the range of 68 to 70 °C. The pest or weed control at 500 µg/mL in data set [2] is at least 70%. Regarding `CC(C)(C)ON=C(CNC(=O)c1ccccc1C(F)(F)F)c1ncc(Cl)cc1Cl` [2-139, N-[2-(3,5-dichloropyridin-2-yl)-2-(tert-butoxyimino)ethyl]-2-(trifluoromethyl)benzamide], the pest or weed control at 500 µg/mL in data set [3] was at least 70%. As to `O=C(NC/C(=N/OCC(F)(F)F)c1ncc(Cl)cc1Cl)c1ccccc1C(F)(F)F` [2-212, (Z)—N-[2-(3,5-dichloropyridin-2-yl)-2-(2,2,2-trifluoroethoxyimino)ethyl]-2-(trifluoromethyl)benzamide], the melting point was in the range of 100 to 102 °C. Further, in data set [4], the pest or weed control at 100 µg/mL is at least 50%.

`CON=C(CN(C(=O)c1ccccc1C(F)(F)F)C1CC1)c1ncc(Cl)cc1Cl` [4-007] yielded a melting point of 75 to 77 °C.

Compound `CO/N=C(\CNC(=O)c1ccccc1C(F)(F)F)c1ccc(Cl)cc1Cl` [Compound No. 1-004, (Z)—N-[2-(2,4-dichlorophenyl)-2-(methoxyimino)ethyl]-2-(trifluoromethyl)benzamide] returned a melting point of 146 to 148 °C. On to `CC(C)ON=C(CNC(=O)c1ccccc1C(F)(F)F)c1ncc(Cl)cc1Cl` [Compound No. 2-005, N-[2-(3,5-dichloropyridin-2-yl)-2-(isopropoxyimino)ethyl]-2-(trifluoromethyl)benzamide], for which the pest or weed control at 500 µg/mL in data set [2] is at least 70%.

Turning to `CCC(C)ON=C(CNC(=O)c1ccccc1C(F)(F)F)c1ncc(Cl)cc1Cl` (stereo not shown) [Compound No. 2-009, N-[2-(3,5-dichloropyridin-2-yl)-2-(sec-butoxyimino)ethyl]-2-(trifluoromethyl)benzamide], the pest or weed control at 100 µg/mL in data set [4] is at least 50%. Turning to `CC(C)O/N=C(\CNC(=O)c1ccccc1C(F)(F)F)c1ncc(C(F)(F)F)cc1Cl` [Compound No. 2-019, (E)-N-[2-[3-chloro-5-(trifluoromethyl)pyridin-2-yl]-2-(isopropoxyimino)ethyl]-2-(trifluoromethyl)benzamide], the melting point lay in the range of 81 to 83 °C.

The compound `O=C(NC/C(=N\OCC1CC1)c1ncc(C(F)(F)F)cc1Cl)c1ccccc1C(F)(F)F` [Compound No. 2-023, (E)-N-[2-[3-chloro-5-(trifluoromethyl)pyridin-2-yl]-2-(cyclopropylmethoxyimino)ethyl]-2-(trifluoromethyl)benzamide] gave a melting point of 98 to 101 °C. `O=C(NC/C(=N/OCC1CC1)c1ncc(C(F)(F)F)cc1Cl)c1ccccc1C(F)(F)F` [Compound No. 2-024, (Z)—N-[2-[3-chloro-5-(trifluoromethyl)pyridin-2-yl]-2-(cyclopropylmethoxyimino)ethyl]-2-(trifluoromethyl)benzamide] displayed a melting point of 73 to 74 °C. For the same compound, in data set [4], the pest or weed control at 100 µg/mL was at least 50%.

In turn, `CC(C)O/N=C(/CNC(=O)c1ccccc1C(F)(F)F)c1ncc(Cl)cc1Cl` [Compound No. 2-128, (Z)—N-[2-(3,5-dichloropyridin-2-yl)-2-(isopropoxyimino)ethyl]-2-(trifluoromethyl)benzamide] returned a melting point of 107 to 108 °C. In addition, the pest or weed control at 100 µg/mL in data set [4] was at least 50%. Consider `CC(C)O/N=C(\c1ncc(Cl)cc1Cl)[C@H](C)NC(=O)c1ccccc1C(F)(F)F` [Compound No. 2-132, (S)—N-[2-(3,5-dichloropyridin-2-yl)-2-(Z)-(isopropoxyimino)-1-methylethyl]-2-(trifluoromethyl)benzamide], for which the pest or weed control at 500 µg/mL in data set [3] is at least 70%. `CC(ON=C(CNC(=O)c1ccccc1C(F)(F)F)c1ncc(Cl)cc1Cl)c1ccc(F)cc1` (stereo not shown) [Compound No. 2-173, N-[2-(3,5-dichloropyridin-2-yl)-2-[1-(4-fluorophenyl)ethoxyimino]ethyl]-2-(trifluoromethyl)benzamide]: the pest or weed control at 100 µg/mL in data set [4] was at least 50%. On to `CC(C)ON=C(CNC(=O)c1ccccc1C(F)(F)F)c1ncc(Br)cc1Cl` [Compound No. 2-181, N-[2-(5-bromo-3-chloropyridin-2-yl)-2-(isopropoxyimino)ethyl]-2-(trifluoromethyl)benzamide], for which the pest or weed control at 500 µg/mL in data set [3] is at least 70%. The pest or weed control at 100 µg/mL in data set [4] is at least 50%. `CCO/N=C(/CNC(=O)c1ccccc1C(F)(F)F)c1ncc(C(F)(F)F)cc1Cl` [Compound No. 2-185, (Z)—N-[2-[3-chloro-5-(trifluoromethyl)pyridin-2-yl]-2-(ethoxyimino)ethyl]-2-(trifluoromethyl)benzamide] yielded a melting point of 60 to 62 °C. In the case of `CO/N=C(/CNC(=O)c1ccccc1C(F)(F)F)c1ncc(Br)cc1Cl` [Compound No. 2-216, (Z)—N-[2-(5-bromo-3-chloropyridin-2-yl)-2-(methoxyimino)ethyl]-2-(trifluoromethyl)benzamide], the melting point was in the range of 85 to 86 °C. Moreover, the pest or weed control at 500 µg/mL in data set [3] was at least 70%. Also, the pest or weed control at 100 µg/mL in data set [4] is at least 50%. `CON=C(CNC(=O)c1ccccc1C(F)(F)F)c1ncc(OCC(F)(F)F)cc1Cl` [Compound No. 2-223, N-[2-[3-chloro-5-(2,2,2-trifluoroethoxy)pyridin-2-yl]-2-(methoxyimino)ethyl]-2-(trifluoromethyl)benzamide] had a pest or weed control at 500 µg/mL in data set [1] of at least 70%. Regarding `CC(C)O/N=C(\CNC(=O)c1ccccc1C(F)(F)F)c1ncc(Cl)cc1Cl` [Compound No. 2-239, (E)-N-[2-(3,5-dichloropyridin-2-yl)-2-(isopropoxyimino)ethyl]-2-(trifluoromethyl)benzamide], the melting point lay within 54 to 57 °C. As for `CC(C)ON=C(CNC(=O)c1ccccc1C(F)(F)F)c1ncc(C#CC(C)(C)C)cc1Cl` [Compound No. 2-248, N-[2-[3-chloro-5-(3,3-dimethyl-1-butynyl)pyridin-2-yl]-2-(isopropoxyimino)ethyl]-2-(trifluoromethyl)benzamide], the pest or weed control at 500 µg/mL in data set [2] is at least 70%. Turning to `CCON=C(CNC(=O)c1cn(C)nc1C(F)F)c1ncc(Cl)cc1Cl` [Compound No. 17-004, N-[2-(3,5-dichloropyridin-2-yl)-2-(ethoxyimino)ethyl]-3-difluoromethyl-1-methyl-1H-pyrazole-4-carboxamide], in data set [3], the pest or weed control at 500 µg/mL is at least 70%.

The melting point is the temperature, or range, at which the solid turns liquid.
